According to US9187784B2, “EphA4 is a disease modifier in motor neuron disease” (VIB VZW, priority 2011, dated 2015):
Marks after values point to notes of the source that are not given here.

Legend:
[1] = tested on: mutant SOD1-overexpressing fish; assay: mutant SOD1-induced motor axonopathy in zebrafish embryos (percentage affected embryos, motor axon length); assay type: in vivo; details: 30 hpf
Excerpt: FIG. 1: EphA4 knockdown rescues mutant SOD1-induced motor axonopathy. […] Abnormal branching is indicated with arrowhead. Y-axes show motor axon length of zebrafish embryos expressing wild-type SOD1 (black bar, Panels D-G) or mutant SOD1 (white bar, Panels D-G). Knockdown of RTK2 in SOD1A4V- (Panel D), SOD1G93A- (Panel E) and SOD1G37R- (Panel F) expressing fish was established by co-injection of increasing amounts of atg-RTK2 morpholino (shaded bars). RTK1 expression was inhibited in SOD1A4V-expressing fish by co-injection of atg-RTK1 morpholino (shaded bars, Panel G). Ctr-RTK2 and ctr-RTK1 were used as control. ANOVA and Bonferroni's multiple comparison tests were used for statistical analysis. Comparing axonal length in SOD1A4V fish injected with ctr-RTK2 (n=39) vs. different doses atg-RTK2: 3 ng (n=43, p=0.0059), 4.5 ng (n=37, p=0.0016, Panel D), SOD1G93A: ctr-RTK2 (n=60) vs. atg-RTK2: 1.5 ng (n=55, p=0.015), 3 ng (n=51, p=2.82×10-9), 4.5 ng (n=46, p=2.22×10-15, Panel E), SOD1G37R: ctr-RTK2 (n=37) vs. atg-RTK2: 3 ng (n=25, p=0.027), 4.5 ng (n=36, p=0.0018, Panel F) and SOD1A4V: ctr-RTK1 (n=49) vs. atg-RTK1: 1.5 ng (n=51, p=2.51×10-7), 3 ng (n=64, p=7.99×10-10), 4.5 ng (n=54, p<1×10-20, Panel G). Western blot of SOD1WT or SOD1A4V (1.76 ng) expressing zebrafish embryos (30 hpf), co-injected with either ctr-RTK1 or atg-RTK1 (4.5 ng). Sixty embryos were used per group with actin as the loading control (H). Immunostaining of rtk1 (green) in rhombomeres 3 and 5 and of ephrin-b2 (magenta) in rhombomere 4 in zebrafish embryos injected with either ctr-RTK1 or atg-RTK1 (4.5 ng). RTK1-depleted embryos show disorganized rhombomere boundaries (arrowhead, I, Scale bar 50 μm). Error bars are s.e.m.
FIG. 2: RTK2 knockdown protects motor axons against SOD1^A4V-induced injury. Effect of RTK2 knockdown, established by injection of splice-rtk2 morpholino, on the motor axon length of SOD1^A4V-expressing zebrafish embryos (30 hpf). SOD1^WT-expressing fish and a non-functional five-base pair-mismatch control morpholino (ctr-RTK2) were used as control (Panel A). ANOVA and Bonferroni's multiple comparison tests were used for statistical analysis: SOD1^A4V/ctr-RTK2 (n=56) vs. SOD1^A4V/spl-RTK2 (n=60, 1.79×10^−4). Spl-RTK2 was designed against the exon 2 splice site of the zebrafish RTK2 pre-mRNA and alternatively skipped out exon 2. RT-PCR on non-transgenic fish (lane 1), ctr-RTK2-injected fish (lane 2) and spl-RTK2-injected fish (lane 3) at 30 hpf. Functional RTK2 mRNA, containing exon 2, is indicated by the 818-bp product (upper band) while non-functional RTK2 mRNA, lacking exon 2 is indicated by the 156-bp product (lower band), 60 embryos each group (Panel B). Error bars are s.e.m.
FIG. 12: Pharmacological inhibition of EphA4 receptor signaling protects against mutant SOD1 pathology in vivo. Effect of treatment with Compound 1 (C1, 500 μM) on the motor axon length of zebrafish embryos (30 hpf). DMSO (1/250 dilution) was used as control (Panel A). ANOVA and Bonferroni's multiple comparison tests were used for statistical analysis: SOD1^A4V/C1 (n=68) vs. SOD1^A4V/DMSO (n=76, p=3.54×10^−5). Effect of KYL-peptide (3 mM) treatment of 60-day-old SOD1^G93A rats on disease onset (Panel B) and survival (Panel C). Artificial CSF (ACSF) was used as control. Average disease onset: 133 days (treated, n=21) versus 125 days (control, n=17, T-test p=0.044). Average survival: 148 days (treated, n=21) versus 139 days (controls, n=17, T-test p=0.041). Error bars are s.e.m.
Effect of RTK2 knockdown (established by injection of atg-RTK2 morpholino) on the percentage of affected wild-type SOD1 or mutant SOD1 (A4V, G93A, G37R) zebrafish embryos (30 hpf). Ctr-RTK2 morpholino was used as control. An embryo was considered as affected when it had more than 10% abnormally branched motor axons. Significance of mtSOD1/ctr-RTK2 (4.5 ng) vs. mtSOD1/atg-RTK2 (4.5 ng) was determined by Mann-Whitney test, * p=0.0075, ° p=0.039 and # p=0.0052. […]

[2] = tested on: non-transgenic or wild-type SOD1-expressing fish; assay: axonal and total body length in non-transgenic or wild-type SOD1-expressing fish; assay type: in vivo; details: zebrafish, average ± s.e.m.
Protocol: Y-axes show motor axon length of non-transgenic (black bar) or SOD1WT-expressing (white bar) zebrafish embryos, injected with either atg-RTK2 (shaded bars, Panel A) or atg-RTK1 morpholino (shaded bars, Panel B). Ctr-RTK2 and ctr-RTK1 were used as controls. Error bars are s.e.m.
To identify disease-modifying genes in ALS in an unbiased way, knockdown screening was performed in the mutant SOD1 zebrafish model (reference 13), using a library of 303 translation blocking morpholinos (atg-mo), of which 58 were targeting genes presumed to be neuronally expressed (according to the NCBI database) and 245 randomly chosen targeting genes. […] The morpholino yielding the highest rescue in two separate experiments was studied further. It targets zebrafish receptor tyrosine kinase 2 (RTK2, also known as epha4b), which has 67% identity and 80% homology to the human orthologue EPHA4. Knockdown of RTK2 in fish expressing mutant SOD1 completely and dose-dependently rescued the motor axonopathy (both axonal length and aberrant branching) caused by three different SOD1 mutations: A4V, G93A and G37R (FIG. 1, Panels A-F; Table 2). […] Receptor tyrosine kinase 1 (RTK1, also known as epha4a), the fish paralogue of RTK2, has 83% identity and 92% homology to human EPHA4. RTK1 knockdown was dose-dependently and equally protective as RTK2 knockdown (FIG. 1, Panel G; Table 4). […]

EphA4 = EphA4 (Homo sapiens, UniProt P54764); details: Noberini et al.; cited from earlier work
Chain of EphA4 (P54764 20-986, species assumed): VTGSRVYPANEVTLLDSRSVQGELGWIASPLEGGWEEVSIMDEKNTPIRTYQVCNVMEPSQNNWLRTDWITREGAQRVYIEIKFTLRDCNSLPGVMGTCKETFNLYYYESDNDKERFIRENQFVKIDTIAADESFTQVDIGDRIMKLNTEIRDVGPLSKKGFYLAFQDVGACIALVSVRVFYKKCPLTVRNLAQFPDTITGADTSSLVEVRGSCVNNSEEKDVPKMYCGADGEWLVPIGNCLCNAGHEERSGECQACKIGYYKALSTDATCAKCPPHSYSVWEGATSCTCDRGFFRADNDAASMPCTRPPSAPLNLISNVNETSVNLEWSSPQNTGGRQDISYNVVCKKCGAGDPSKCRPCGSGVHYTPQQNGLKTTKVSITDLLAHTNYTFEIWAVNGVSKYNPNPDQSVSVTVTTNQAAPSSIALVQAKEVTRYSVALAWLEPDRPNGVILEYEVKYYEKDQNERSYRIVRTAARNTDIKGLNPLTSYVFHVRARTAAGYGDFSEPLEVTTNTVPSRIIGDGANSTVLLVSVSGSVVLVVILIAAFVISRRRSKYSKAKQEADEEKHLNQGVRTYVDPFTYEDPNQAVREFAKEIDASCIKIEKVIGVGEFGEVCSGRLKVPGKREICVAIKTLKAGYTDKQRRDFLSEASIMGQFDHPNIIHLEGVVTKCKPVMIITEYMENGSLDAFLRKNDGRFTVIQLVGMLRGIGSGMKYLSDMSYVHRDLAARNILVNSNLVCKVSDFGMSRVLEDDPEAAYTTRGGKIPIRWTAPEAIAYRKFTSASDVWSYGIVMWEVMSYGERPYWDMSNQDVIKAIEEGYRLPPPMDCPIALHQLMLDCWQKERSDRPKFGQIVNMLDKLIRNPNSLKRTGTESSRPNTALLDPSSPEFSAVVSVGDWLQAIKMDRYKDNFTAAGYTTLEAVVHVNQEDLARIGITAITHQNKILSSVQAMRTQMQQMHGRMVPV

| Molecule | % affected embryos (more than 10% abnormally branched motor axons) ([1]; mtSOD1 A4V zebrafish embryos, morpholino 1.5 ng) | % affected embryos (more than 10% abnormally branched motor axons) ([1]; mtSOD1 A4V zebrafish embryos, morpholino 3.0 ng) | % affected embryos (more than 10% abnormally branched motor axons) ([1]; mtSOD1 A4V zebrafish embryos, morpholino 4.5 ng) | % affected embryos (more than 10% abnormally branched motor axons) ([1]; mtSOD1 G37R zebrafish embryos, morpholino 1.5 ng) | % affected embryos (more than 10% abnormally branched motor axons) ([1]; mtSOD1 G37R zebrafish embryos, morpholino 3.0 ng) | % affected embryos (more than 10% abnormally branched motor axons) ([1]; mtSOD1 G37R zebrafish embryos, morpholino 4.5 ng) | % affected embryos (more than 10% abnormally branched motor axons) ([1]; mtSOD1 G93A zebrafish embryos, morpholino 1.5 ng) | % affected embryos (more than 10% abnormally branched motor axons) ([1]; mtSOD1 G93A zebrafish embryos, morpholino 3.0 ng) | % affected embryos (more than 10% abnormally branched motor axons) ([1]; mtSOD1 G93A zebrafish embryos, morpholino 4.5 ng) [° %] | % affected embryos (more than 10% abnormally branched motor axons) ([1]; wtSOD1 zebrafish embryos, morpholino 4.5 ng) [%] | body length [2] [mm] | inhibition of ephrin binding to EphA4 (EphA4) |
| --- | --- | --- | --- | --- | --- | --- | --- | --- | --- | --- | --- | --- |
| 5′-AATCCAAAGGGTAGCCA-TTTTCAGG-′3 (antisense AATCCAAAGGGTAGCCATTTTCAGG; morpholino, chemistry not fully specified) [atg-RTK2] | 29 (41) % | 18 (44) % | 8* % | 34 (26) % | 8 (25) % | 16# % | 55 (47) % | 50 (54) % | 23 | 12 | 2.70±0.01 |  |
| Cc1ccc(C)n1-c1ccc(O)c(C(=O)O)c1 [compound 2] |  |  |  |  |  |  |  |  |  |  |  | selectively inhibit ephrin binding to EphA4 |
